Assay results published in the NIST ThermoML archive (doi:10.1021/je5000132).

Tests used:
[1] = for speed of sound: 100 kPa, Pulse-echo method; for speed of sound / viscosity / mass density: Liquid; for viscosity / mass density: 101 kPa; for viscosity: Concentric cylinders viscometry; for mass density: Vibrating tube method; for surface tension liquid-gas: 294.7 K, Drop volume
[2] = xn = mol fraction of the nth substance listed; conditions: x2 = 0; for speed of sound: 100 kPa, Pulse-echo method; for speed of sound / viscosity / mass density: Liquid; for viscosity / mass density: 101 kPa; for viscosity: Concentric cylinders viscometry; for mass density: Vibrating tube method; for surface tension liquid-gas: 294.7 K, Drop volume

CC(CC(C)(C)C)CC(C)(C)CC(C)(C)C (configuration not stated) [2,2,4,4,6,8,8-heptamethylnonane]
[1]
Conditions | mass density [kg/m3] | speed of sound [m/s] | viscosity [mPa·s]
293.15 K | 784.457 | 1285.7 | 3.7
303.15 K | 777.761 | 1248.5 | 2.92
313.15 K | 771.044 | 1211.8 | 2.37
323.15 K | 764.316 | 1176 | 1.95
333.15 K | 757.571 | 1140.8 | 1.63
343.15 K | 750.7 | – | 1.39
353.15 K | 743.8 | – | 1.19
363.15 K | 736.8 | – | 1.04
373.15 K | 729.9 | – | 0.914

Conditions | surface tension liquid-gas [mN/m]
[1] | 24

CC(CC(C)(C)C)CC(C)(C)C [2,2,4,6,6-pentamethylheptane]
[1]
Conditions | speed of sound [m/s]
293.15 K | 1203.6
303.15 K | 1164.8
313.15 K | 1126.7
323.15 K | 1089.3
333.15 K | 1052.5

Conditions | surface tension liquid-gas [mN/m]
[1] | 21.8

CCCCCCCCCCCC [dodecane]
[1]
Conditions | mass density [kg/m3] | speed of sound [m/s] | viscosity [mPa·s]
293.15 K | 748.893 | 1297.6 | 1.49
303.15 K | 741.635 | 1259.3 | 1.25
313.15 K | 734.349 | 1221.4 | 1.06
323.15 K | 727.038 | 1184.2 | 0.916
333.15 K | 719.691 | 1147.5 | 0.799
343.15 K | 712.2 | – | 0.704
353.15 K | 704.7 | – | 0.625
363.15 K | 697.1 | – | 0.56
373.15 K | 689.6 | – | 0.506

Conditions | surface tension liquid-gas [mN/m]
[1] | 25.3

CCCCCCCCCCCC [dodecane] + CC(CC(C)(C)C)CC(C)(C)C
[2]
Conditions | mass density [kg/m3] | speed of sound [m/s] | viscosity [mPa·s]
293.15 K | 748.893 | 1297.6 | 1.49
303.15 K | 741.635 | 1259.3 | 1.25
313.15 K | 734.349 | 1221.4 | 1.06
323.15 K | 727.038 | 1184.2 | 0.916
333.15 K | 719.691 | 1147.5 | 0.799
343.15 K | 712.2 | – | 0.704
353.15 K | 704.7 | – | 0.625
363.15 K | 697.1 | – | 0.56
373.15 K | 689.6 | – | 0.506

Conditions | surface tension liquid-gas [mN/m]
[2] | 25.3

CCCCCCCCCCCC [dodecane] + CC(CC(C)(C)C)CC(C)(C)CC(C)(C)C
[2]
Conditions | mass density [kg/m3] | speed of sound [m/s] | viscosity [mPa·s]
293.15 K | 748.893 | 1297.6 | 1.49
303.15 K | 741.635 | 1259.3 | 1.25
313.15 K | 734.349 | 1221.4 | 1.06
323.15 K | 727.038 | 1184.2 | 0.916
333.15 K | 719.691 | 1147.5 | 0.799
343.15 K | 712.2 | – | 0.704
353.15 K | 704.7 | – | 0.625
363.15 K | 697.1 | – | 0.56
373.15 K | 689.6 | – | 0.506

Conditions | surface tension liquid-gas [mN/m]
[2] | 25.3
